Measurements from publication PMC9532399, “The lysosomal transporter TAPL has a dual role as peptide translocator and phosphatidylserine floppase” (Nature Communications, 2022).

Target: T1, TAPL Y405A mutant (Mus musculus, UniProt Q9JJ59, Y405A)
T1 construct: thrombin cleavage site (C); eGFP (C); 10XHis (C); made in house; host or cells: Trichoplusia ni High Five (Hi5) insect cells, baculovirus (pVL1393)
T1 sequence (Q9JJ59 143-762 Y405A): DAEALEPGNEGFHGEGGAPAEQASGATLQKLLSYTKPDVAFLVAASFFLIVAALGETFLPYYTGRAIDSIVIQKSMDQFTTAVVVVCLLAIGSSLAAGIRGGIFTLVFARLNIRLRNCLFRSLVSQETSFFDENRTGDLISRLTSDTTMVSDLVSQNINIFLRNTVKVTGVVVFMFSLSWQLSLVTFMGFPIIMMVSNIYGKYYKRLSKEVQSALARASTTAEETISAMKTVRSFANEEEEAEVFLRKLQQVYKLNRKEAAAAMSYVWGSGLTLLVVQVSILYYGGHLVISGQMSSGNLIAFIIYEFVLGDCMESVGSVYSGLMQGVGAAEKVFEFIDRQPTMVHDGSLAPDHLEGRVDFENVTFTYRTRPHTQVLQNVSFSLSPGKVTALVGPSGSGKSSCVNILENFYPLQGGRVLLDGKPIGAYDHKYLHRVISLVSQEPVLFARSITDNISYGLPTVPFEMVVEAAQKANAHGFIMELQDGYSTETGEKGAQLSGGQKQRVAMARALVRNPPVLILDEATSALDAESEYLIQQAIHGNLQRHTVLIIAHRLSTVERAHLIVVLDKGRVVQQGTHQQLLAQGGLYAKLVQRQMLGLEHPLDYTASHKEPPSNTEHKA
Assay: Dithionite-based flip-flop assay, Y405A proteoliposomes
Format: biochemical
Description: All lipids used in reconstitution were purchased from Avanti Polar Lipids, Inc. (purity > 99%). The in vitro flip–flop assay was performed using NBD* dye-labeled proteoliposomes as described previously. Briefly, E. coli polar lipids and egg PC were mixed in a 1:1 molar ratio, and 0.5% (mol/mol) NBD*-lipid was added. The lipid mixture was then dried under nitrogen gas. The NBD*-lipids used were 18:1-06:0 NBD*-PS (1-oleoyl-2-{6-[(7-nitro-2-1,3-benzoxadiazol-4-yl)amino]hexanoyl}-sn-glycero-3-phosphoserine), 18:1-06:0 NBD*-PC (1-oleoyl-2-{6-[(7-nitro-2-1,3-benzoxadiazol-4-yl)amino]hexanoyl}-sn-glycero-3-phosphocholine), 18:1-06:0 NBD*-PG (1-oleoyl-2-{6-[(7-nitro-2-1,3-benzoxadiazol-4-yl)amino]hexanoyl}-sn-glycero-3-[phospho-rac-(1-glycerol)]), 18:1-06:0 NBD*-PE (1-oleoyl-2-{6-[(7-nitro-2-1,3-benzoxadiazol-4-yl)amino]hexanoyl}-sn-glycero-3-phosphoethanolamine), and 25-NBD*-Cholesterol (25-[N-[(7-nitro-2-1,3-benzoxadiazol-4-yl)methyl]amino]−27-norcholesterol). Thin lipid films were solubilized in 20 mM HEPES–NaOH pH 8.0, 200 mM NaCl and 5% (v/v) glycerol, incubated at RT for 30 min and subjected to 5 freeze–thaw cycles. After extrusion with a Mini-Extruder at 65 °C, final lipid concentrations were determined by phosphorus assays. Briefly, 10 μL of extruded lipid was added to 10 μL of 2% (w/v) ammonium molybdate and 300 μL of concentrated perchloric acid. […] Lipid concentrations were calculated from the absorbance at 820 nm using a standard curve prepared with NaH2PO4 solution. […]
To measure the flip–flop activity, 10 μL of 2 mM NBD*-labeled proteoliposomes were added to 100 μL of reaction buffer (20 mM HEPES–NaOH pH 8.0, 200 mM NaCl, 5 mM ATP and 5% (v/v) glycerol) in the presence of 2 mM MgCl2 (or NaCl), and incubated at 37 °C for 1 h. The mixture was transferred to a 96-well plate and time-dependent fluorescence (λex/λem = 460/538 nm) was recorded every 30 s for 26 min using a fluorescence spectrophotometer (Gemini XPS). After the baseline fluorescence had stabilized, 10 mM sodium dithionite was added to quench the fluorescence of NBD*-lipid present in the outer leaflets of the liposomes. The initial rapid drop and subsequent slow decline in fluorescence intensity were monitored. […] The net percentage of NBD*-lipid translocated across the lipid bilayer was calculated from the following equation[72]: the percentage of protected NBD*-lipid in the inner leaflet = [(FD−F0)/(FT−F0)]×100, and that of accessible NBD*-lipid in the outer leaflet = [(FT−FD)/(FT−F0)]×100, where FT is the total fluorescence of the sample before the addition of dithionite, FD is the fluorescence of the sample after quenching with dithionite, and F0 is any residual fluorescence of the sample after solubilization with Triton X-100. […]

Structure (SMILES): CCCCCCCC/C=C\CCCCCCCC(=O)OC[C@H](COP(=O)(O)OC[C@H](N)C(=O)O)OC(=O)CCCCCNc1ccc([N+](=O)[O-])c2nonc12 [NBD*-PS, 1-oleoyl-2-{6-[(7-nitro-2-1,3-benzoxadiazol-4-yl)amino]hexanoyl}-sn-glycero-3-phosphoserine]
- NBD*-PS fluorescence intensity (net percentage transported outer to inner leaflet) (Mg2+/ATP minus Na+/ATP, mean n=3): 1.556%
- NBD*-PS fluorescence intensity (net percentage transported) (replicate I): 1.636%
- NBD*-PS fluorescence intensity (net percentage transported) (replicate II): 1.459%
- NBD*-PS fluorescence intensity (net percentage transported) (replicate III): 1.571%
